Source: the supplement of paper PMC10307832

Legend:
Assay in all cases: relative viability (nuclei count vs DMSO), 5 days (fraction); higher = more cells survive
NCI-H2023 = tested on: NCI-H2023
Method in brief: (§1)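 Relative viability equals treated-well nuclei counts divided by vehicle-well nuclei counts. Counts came from 4× images of lung cancer cell lines grown in 1536-well plates for 5 days after pin-tool dosing on the day after seeding. Dosing used one drug alone or a fixed anchor-drug dose plus five library-drug doses (not always all listed) in √10 steps, and values are medians of duplicate plates.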

NCI-H1993 = tested on: NCI-H1993
Method in brief: as §1

NCI-H322M = tested on: NCI-H322M
Method in brief: as §1

H3255 = tested on: H3255
Method in brief: as §1

EMC-BAC-2 = tested on: EMC-BAC-2
Method in brief: as §1

NCI-H647 = tested on: NCI-H647
Method in brief: as §1

SW 1573 = tested on: SW 1573
Method in brief: as §1

NCI-H2347 = tested on: NCI-H2347
Method in brief: as §1

NCI-H661 = tested on: NCI-H661
Method in brief: as §1

HOP-62 = tested on: HOP-62
Method in brief: as §1

NCI-H2126 = tested on: NCI-H2126
Method in brief: as §1

SK-LU-1 = tested on: SK-LU-1
Method in brief: as §1

LXF-289 = tested on: LXF-289
Method in brief: as §1

EPLC-272H = tested on: EPLC-272H
Method in brief: as §1

LCLC-97TM1 = tested on: LCLC-97TM1
Method in brief: as §1

NCI-H1563 = tested on: NCI-H1563
Method in brief: as §1

PC-14 = tested on: PC-14
Method in brief: as §1

NCI-H2009 = tested on: NCI-H2009
Method in brief: as §1

NCI-H1734 = tested on: NCI-H1734
Method in brief: as §1

NCI-H1915 = tested on: NCI-H1915
Method in brief: as §1

NCI-H2085 = tested on: NCI-H2085
Method in brief: as §1

Structure (SMILES): CC(=O)O[C@@]12CO[C@@H]1C[C@H](O)[C@@]1(C)C(=O)[C@H](O)C3=C(C)[C@@H](OC(=O)[C@H](O)[C@@H](NC(=O)OC(C)(C)C)c4ccccc4)C[C@@](O)([C@@H](OC(=O)c4ccccc4)[C@H]21)C3(C)C [Docetaxel] + Nc1nc2[nH]cc(CCc3ccc(C(=O)N[C@@H](CCC(=O)O)C(=O)O)cc3)c2c(=O)[nH]1 [Pemetrexed] (partner 0.2 µM)
- relative viability (NCI-H2023; first compound 0.0002 µM): 0.208
- relative viability (NCI-H2023; first compound 0.000632 µM): 0.197
- relative viability (NCI-H2023; first compound 0.002 µM): 0.144
- relative viability (NCI-H2023; first compound 0.006325 µM): 0.124
- relative viability (NCI-H2023; first compound 0.02 µM): 0.0817
- relative viability (NCI-H1993; first compound 0.0002 µM): 0.641
- relative viability (NCI-H1993; first compound 0.000632 µM): 0.762
- relative viability (NCI-H1993; first compound 0.002 µM): 0.64
- relative viability (NCI-H1993; first compound 0.006325 µM): 0.444
- relative viability (NCI-H1993; first compound 0.02 µM): 0.391
- relative viability (NCI-H322M; first compound 0.0002 µM): 0.552
- relative viability (NCI-H322M; first compound 0.000632 µM): 0.602
- relative viability (NCI-H322M; first compound 0.002 µM): 0.689
- relative viability (NCI-H322M; first compound 0.006325 µM): 0.642
- relative viability (NCI-H322M; first compound 0.02 µM): 0.486
- relative viability (H3255; first compound 0.0002 µM): 0.494
- relative viability (H3255; first compound 0.000632 µM): 0.595
- relative viability (H3255; first compound 0.002 µM): 0.437
- relative viability (H3255; first compound 0.006325 µM): 0.368
- relative viability (H3255; first compound 0.02 µM): 0.359
- relative viability (EMC-BAC-2; first compound 0.0002 µM): 0.461
- relative viability (EMC-BAC-2; first compound 0.000632 µM): 0.462
- relative viability (EMC-BAC-2; first compound 0.002 µM): 0.464
- relative viability (EMC-BAC-2; first compound 0.006325 µM): 0.361
- relative viability (EMC-BAC-2; first compound 0.02 µM): 0.358
- relative viability (NCI-H647; first compound 0.0002 µM): 0.175
- relative viability (NCI-H647; first compound 0.000632 µM): 0.142
- relative viability (NCI-H647; first compound 0.002 µM): 0.103
- relative viability (NCI-H647; first compound 0.006325 µM): 0.122
- relative viability (NCI-H647; first compound 0.02 µM): 0.0856
- relative viability (SW 1573; first compound 0.0002 µM): 0.557
- relative viability (SW 1573; first compound 0.000632 µM): 0.478
- relative viability (SW 1573; first compound 0.002 µM): 0.236
- relative viability (SW 1573; first compound 0.006325 µM): 0.146
- relative viability (SW 1573; first compound 0.02 µM): 0.138
- relative viability (NCI-H2347; first compound 0.0002 µM): 0.422
- relative viability (NCI-H2347; first compound 0.000632 µM): 0.446
- relative viability (NCI-H2347; first compound 0.002 µM): 0.419
- relative viability (NCI-H2347; first compound 0.006325 µM): 0.429
- relative viability (NCI-H2347; first compound 0.02 µM): 0.357
- relative viability (NCI-H661; first compound 0.0002 µM): 0.947
- relative viability (NCI-H661; first compound 0.000632 µM): 0.944
- relative viability (NCI-H661; first compound 0.002 µM): 0.799
- relative viability (NCI-H661; first compound 0.006325 µM): 0.572
- relative viability (NCI-H661; first compound 0.02 µM): 0.366
- relative viability (HOP-62; first compound 0.0002 µM): 0.324
- relative viability (HOP-62; first compound 0.000632 µM): 0.362
- relative viability (HOP-62; first compound 0.002 µM): 0.304
- relative viability (NCI-H2126; first compound 0.0002 µM): 0.79
- relative viability (NCI-H2126; first compound 0.000632 µM): 0.661
- relative viability (NCI-H2126; first compound 0.002 µM): 0.456
- relative viability (NCI-H2126; first compound 0.006325 µM): 0.391
- relative viability (SK-LU-1; first compound 0.0002 µM): 0.947
- relative viability (SK-LU-1; first compound 0.000632 µM): 0.725
- relative viability (SK-LU-1; first compound 0.002 µM): 0.535
- relative viability (SK-LU-1; first compound 0.006325 µM): 0.337
- relative viability (SK-LU-1; first compound 0.02 µM): 0.258
- relative viability (LXF-289; first compound 0.0002 µM): 0.875
- relative viability (LXF-289; first compound 0.000632 µM): 0.8
- relative viability (LXF-289; first compound 0.002 µM): 0.363
- relative viability (LXF-289; first compound 0.006325 µM): 0.116
- relative viability (LXF-289; first compound 0.02 µM): 0.0871
- relative viability (EPLC-272H; first compound 0.0002 µM): 0.298
- relative viability (EPLC-272H; first compound 0.000632 µM): 0.187
- relative viability (EPLC-272H; first compound 0.002 µM): 0.139
- relative viability (EPLC-272H; first compound 0.006325 µM): 0.0965
- relative viability (EPLC-272H; first compound 0.02 µM): 0.111
- relative viability (LCLC-97TM1; first compound 0.0002 µM): 0.167
- relative viability (LCLC-97TM1; first compound 0.000632 µM): 0.161
- relative viability (LCLC-97TM1; first compound 0.002 µM): 0.129
- relative viability (LCLC-97TM1; first compound 0.006325 µM): 0.109
- relative viability (LCLC-97TM1; first compound 0.02 µM): 0.0702
- relative viability (NCI-H1563; first compound 0.0002 µM): 0.701
- relative viability (NCI-H1563; first compound 0.000632 µM): 0.843
- relative viability (NCI-H1563; first compound 0.002 µM): 0.69
- relative viability (NCI-H1563; first compound 0.006325 µM): 0.608
- relative viability (NCI-H1563; first compound 0.02 µM): 0.374
- relative viability (PC-14; first compound 0.0002 µM): 0.13
- relative viability (PC-14; first compound 0.000632 µM): 0.144
- relative viability (PC-14; first compound 0.002 µM): 0.129
- relative viability (PC-14; first compound 0.006325 µM): 0.0511
- relative viability (PC-14; first compound 0.02 µM): 0.0414
- relative viability (NCI-H2009; first compound 0.0002 µM): 0.946
- relative viability (NCI-H2009; first compound 0.000632 µM): 1.03
- relative viability (NCI-H2009; first compound 0.002 µM): 0.956
- relative viability (NCI-H2009; first compound 0.006325 µM): 0.733
- relative viability (NCI-H2009; first compound 0.02 µM): 0.27
- relative viability (NCI-H1734; first compound 0.0002 µM): 0.425
- relative viability (NCI-H1734; first compound 0.000632 µM): 0.521
- relative viability (NCI-H1734; first compound 0.002 µM): 0.405
- relative viability (NCI-H1734; first compound 0.006325 µM): 0.303
- relative viability (NCI-H1734; first compound 0.02 µM): 0.239
- relative viability (NCI-H1915; first compound 0.0002 µM): 0.562
- relative viability (NCI-H1915; first compound 0.000632 µM): 0.47
- relative viability (NCI-H1915; first compound 0.002 µM): 0.327
- relative viability (NCI-H1915; first compound 0.006325 µM): 0.152
- relative viability (NCI-H1915; first compound 0.02 µM): 0.108
- relative viability (NCI-H2085; first compound 0.0002 µM): 0.84
- relative viability (NCI-H2085; first compound 0.000632 µM): 0.902
- relative viability (NCI-H2085; first compound 0.002 µM): 0.552
- relative viability (NCI-H2085; first compound 0.006325 µM): 0.545
- relative viability (NCI-H2085; first compound 0.02 µM): 0.301
